This is an account of results in patent publication US8222262B2, “Indazolyl derivatives useful as potassium channel modulating agents” (Neurosearch A/S, priority 2006, dated 2012).

The target of one data set is T1, hSK3 channels (Homo sapiens, UniProt Q9UGI6).
T1 construct: expressed in transfected cells; host or cells: HEK293
The data set can be described thus: Whole-cell patch-clamp recording of ionic current through SK channels (subtype 3) in HEK293 cells expressing hSK3. Format: cell-based. To be noted: baseline current at -75 mV, free Ca2+ 0.3-0.4 μM, room temperature. The protocol: The ionic current through small-conductance Ca^2+-activated K^+ channels (SK channels, subtype 3) is recorded using the whole-cell configuration of the patch-clamp technique.
HEK293 tissue culture cells expressing hSK3 channels were grown in DMEM (Dulbecco's Modified Eagle Medium) supplemented with 10% FCS (foetal calf serum) at 37° C. in 5% CO2. At 60-80% confluency, cells were harvested by trypsin treatment and seeded on cover slips.
Experiments are carried out a patch-clamp set-up. Cells plated on coverslips are placed in a 15 μl perfusion chamber (flowrate ˜1 ml/min) mounted on an inverted microscope placed on a vibration-free table in a grounded Faraday cage. All experiments are performed at room temperature (20-22° C.). […] Data are stored directly on the hard-disk and analysed by IGOR software (Wavemetrics, Lake Oswega, Oreg., USA).
The whole-cell configuration of the patch-clamp technique is applied. […] Cell capacitance is electronically compensated and the resistance between the pipette and the cell interior (the series resistance, Rs) is measured and compensated for. […]
The intracellular (pipette) solution contained: 154 mM KCl, 10 mM HEPES, 10 mM EGTA. Concentrations of CaCl2 and MgCl2 needed to obtain the desired free concentrations of Ca^2+ (0.3-0.4 μM, Mg^2+ always 1 mM) were calculated by EqCal software (Cambridge, UK) and added. […]

SMILES strings stand for the structures.

What is called melting point is the temperature, or range, at which the solid turns liquid. Turning to `Cc1cc(Nc2ccc(Cl)cc2)nc(-n2cc3ccccc3n2)n1` [Compound A1, (4-Chloro-phenyl)-(2-indazol-2-yl-6-methyl-pyrimidin-4-yl)-amine], the melting point was in the range of 224.7 to 226.7 °C. Moreover, the “SC100 (Stimulating Concentration required for increasing the baseline current by 100%)” value at hSK3 channels was 0.08 µM.

Take `c1ccc2c(c1)cnn2-c1nc(NC2CCCCC2)c2ccccc2n1` [Compound A3, Cyclohexyl-(2-indazol-1-yl-quinazolin-4-yl)-amine]: the melting point lay within 278.1 to 281.4 °C.

`Clc1ccc(Nc2cncc(-n3cc4ccccc4n3)n2)cc1` [Compound D1, (4-Chloro-phenyl)-(6-indazol-2-yl-pyrazin-2-yl)-amine] yielded a melting point of 249 to 252 °C.
